From publication PMC12067145 (ACS Medicinal Chemistry Letters, 2025)

What was measured:
[1] = target: Dopamine D2S (Homo sapiens, UniProt P14416); assay: Eurofins lead profiling screen (radioligand binding)
[2] = test system: Phorbol Ester; assay: as above; set-up: species or system Mouse
[3] = target: Adrenergic α1A (Rattus norvegicus, UniProt P43140); assay: as above
[4] = target: Bradykinin B2 (Homo sapiens, UniProt P30411); assay: as above
[5] = target: Muscarinic M1 (Homo sapiens, UniProt P11229); assay: as above
[6] = target: hERG potassium channel (Homo sapiens, UniProt Q12809); assay: as above
[7] = target: Transporter, Serotonin (SERT) (Homo sapiens, UniProt P31645); assay: as above
[8] = target: Transporter, Norepinephrine (NET) (Homo sapiens, UniProt P23975); assay: as above
[9] = test system: Rolipram; assay: as above; set-up: species or system Rat
[10] = target: Calcium Channel L-Type, Dihydropyridine (Rattus norvegicus, UniProt P22002); assay: as above
Calcium Channel L-Type, Dihydropyridine, sequence (P22002 whole entry): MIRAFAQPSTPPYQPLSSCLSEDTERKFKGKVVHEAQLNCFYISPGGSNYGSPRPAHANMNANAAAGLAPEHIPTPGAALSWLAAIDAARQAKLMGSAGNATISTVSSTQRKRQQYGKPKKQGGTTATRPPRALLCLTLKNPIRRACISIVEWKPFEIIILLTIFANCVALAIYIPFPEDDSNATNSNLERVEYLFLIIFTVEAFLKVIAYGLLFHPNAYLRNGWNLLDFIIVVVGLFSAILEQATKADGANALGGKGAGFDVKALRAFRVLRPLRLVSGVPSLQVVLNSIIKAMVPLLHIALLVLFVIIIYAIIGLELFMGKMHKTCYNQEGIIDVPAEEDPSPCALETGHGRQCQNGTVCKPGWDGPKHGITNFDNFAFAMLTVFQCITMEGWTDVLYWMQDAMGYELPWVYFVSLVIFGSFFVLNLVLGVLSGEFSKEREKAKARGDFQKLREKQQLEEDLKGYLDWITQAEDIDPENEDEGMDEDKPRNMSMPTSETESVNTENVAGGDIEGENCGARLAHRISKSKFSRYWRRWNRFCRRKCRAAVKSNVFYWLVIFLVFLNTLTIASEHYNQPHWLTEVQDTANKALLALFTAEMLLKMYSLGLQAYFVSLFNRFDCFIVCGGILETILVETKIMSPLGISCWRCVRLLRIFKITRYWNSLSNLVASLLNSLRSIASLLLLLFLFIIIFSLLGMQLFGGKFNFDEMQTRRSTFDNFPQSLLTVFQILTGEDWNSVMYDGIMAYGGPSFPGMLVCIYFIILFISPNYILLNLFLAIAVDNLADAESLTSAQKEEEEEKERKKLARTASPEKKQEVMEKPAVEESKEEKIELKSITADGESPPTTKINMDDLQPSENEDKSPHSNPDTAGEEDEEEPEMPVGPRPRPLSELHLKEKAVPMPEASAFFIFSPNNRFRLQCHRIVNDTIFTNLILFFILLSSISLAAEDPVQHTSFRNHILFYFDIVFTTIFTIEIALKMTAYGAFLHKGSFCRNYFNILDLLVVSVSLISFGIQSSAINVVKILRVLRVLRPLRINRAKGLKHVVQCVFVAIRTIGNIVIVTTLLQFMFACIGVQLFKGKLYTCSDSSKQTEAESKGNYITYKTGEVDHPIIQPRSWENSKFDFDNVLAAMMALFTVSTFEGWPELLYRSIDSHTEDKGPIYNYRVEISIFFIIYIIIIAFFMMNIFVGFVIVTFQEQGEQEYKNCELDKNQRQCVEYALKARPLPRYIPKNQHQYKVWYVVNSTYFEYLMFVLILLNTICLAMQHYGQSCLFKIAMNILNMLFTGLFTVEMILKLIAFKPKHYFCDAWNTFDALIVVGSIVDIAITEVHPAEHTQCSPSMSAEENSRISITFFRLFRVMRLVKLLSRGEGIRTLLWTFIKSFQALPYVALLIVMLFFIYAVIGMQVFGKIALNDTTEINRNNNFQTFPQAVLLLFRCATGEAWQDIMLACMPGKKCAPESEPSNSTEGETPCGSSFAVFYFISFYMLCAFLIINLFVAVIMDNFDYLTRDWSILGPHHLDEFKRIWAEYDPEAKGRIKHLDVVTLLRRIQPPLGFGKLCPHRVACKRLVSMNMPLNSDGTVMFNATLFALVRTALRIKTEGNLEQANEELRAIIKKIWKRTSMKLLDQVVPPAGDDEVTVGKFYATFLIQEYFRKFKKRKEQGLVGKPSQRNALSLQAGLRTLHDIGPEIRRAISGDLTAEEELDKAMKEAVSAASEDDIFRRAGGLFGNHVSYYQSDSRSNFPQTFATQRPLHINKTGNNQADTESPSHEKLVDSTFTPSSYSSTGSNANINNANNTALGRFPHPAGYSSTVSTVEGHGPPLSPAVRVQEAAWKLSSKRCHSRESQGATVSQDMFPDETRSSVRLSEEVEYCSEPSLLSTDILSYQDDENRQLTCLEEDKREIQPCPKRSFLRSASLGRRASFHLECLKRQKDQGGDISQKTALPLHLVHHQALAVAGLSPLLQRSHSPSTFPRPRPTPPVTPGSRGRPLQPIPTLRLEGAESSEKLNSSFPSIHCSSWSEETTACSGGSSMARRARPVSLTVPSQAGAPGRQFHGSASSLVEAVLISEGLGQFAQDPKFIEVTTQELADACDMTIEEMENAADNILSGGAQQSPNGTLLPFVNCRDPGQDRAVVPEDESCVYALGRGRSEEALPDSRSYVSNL

[11] = target: Muscarinic M3 (Homo sapiens, UniProt P20309); assay: as above
[12] = target: Epidermal Growth Factor (EGF) (Homo sapiens, UniProt P00533); assay: as above
[13] = test system: Purinergic P2Y; assay: as above; set-up: species or system Rat
[14] = target: Endothelin ETB (Homo sapiens, UniProt P24530); assay: as above
Endothelin ETB, sequence (P24530 27-442): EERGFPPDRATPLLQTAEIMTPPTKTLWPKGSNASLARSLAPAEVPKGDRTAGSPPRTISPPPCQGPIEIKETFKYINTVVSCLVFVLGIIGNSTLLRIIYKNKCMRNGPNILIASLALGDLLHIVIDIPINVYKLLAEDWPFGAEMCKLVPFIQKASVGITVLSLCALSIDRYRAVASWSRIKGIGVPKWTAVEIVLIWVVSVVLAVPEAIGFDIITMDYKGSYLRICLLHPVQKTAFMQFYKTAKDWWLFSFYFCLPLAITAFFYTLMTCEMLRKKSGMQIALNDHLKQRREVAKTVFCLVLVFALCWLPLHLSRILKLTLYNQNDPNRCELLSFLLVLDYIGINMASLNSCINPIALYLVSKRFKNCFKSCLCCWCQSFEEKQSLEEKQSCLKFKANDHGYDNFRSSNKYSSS

[15] = target: Transporter, Dopamine (DAT) (Homo sapiens, UniProt Q01959); assay: as above
[16] = target: Adrenergic α2A (Homo sapiens, UniProt P08913); assay: as above
[17] = test system: Glutamate, NMDA, Phencyclidine; assay: as above; set-up: species or system Rat
[18] = target: Androgen (Testosterone) (Homo sapiens, UniProt P10275); assay: as above
Androgen (Testosterone), sequence (P10275 whole entry): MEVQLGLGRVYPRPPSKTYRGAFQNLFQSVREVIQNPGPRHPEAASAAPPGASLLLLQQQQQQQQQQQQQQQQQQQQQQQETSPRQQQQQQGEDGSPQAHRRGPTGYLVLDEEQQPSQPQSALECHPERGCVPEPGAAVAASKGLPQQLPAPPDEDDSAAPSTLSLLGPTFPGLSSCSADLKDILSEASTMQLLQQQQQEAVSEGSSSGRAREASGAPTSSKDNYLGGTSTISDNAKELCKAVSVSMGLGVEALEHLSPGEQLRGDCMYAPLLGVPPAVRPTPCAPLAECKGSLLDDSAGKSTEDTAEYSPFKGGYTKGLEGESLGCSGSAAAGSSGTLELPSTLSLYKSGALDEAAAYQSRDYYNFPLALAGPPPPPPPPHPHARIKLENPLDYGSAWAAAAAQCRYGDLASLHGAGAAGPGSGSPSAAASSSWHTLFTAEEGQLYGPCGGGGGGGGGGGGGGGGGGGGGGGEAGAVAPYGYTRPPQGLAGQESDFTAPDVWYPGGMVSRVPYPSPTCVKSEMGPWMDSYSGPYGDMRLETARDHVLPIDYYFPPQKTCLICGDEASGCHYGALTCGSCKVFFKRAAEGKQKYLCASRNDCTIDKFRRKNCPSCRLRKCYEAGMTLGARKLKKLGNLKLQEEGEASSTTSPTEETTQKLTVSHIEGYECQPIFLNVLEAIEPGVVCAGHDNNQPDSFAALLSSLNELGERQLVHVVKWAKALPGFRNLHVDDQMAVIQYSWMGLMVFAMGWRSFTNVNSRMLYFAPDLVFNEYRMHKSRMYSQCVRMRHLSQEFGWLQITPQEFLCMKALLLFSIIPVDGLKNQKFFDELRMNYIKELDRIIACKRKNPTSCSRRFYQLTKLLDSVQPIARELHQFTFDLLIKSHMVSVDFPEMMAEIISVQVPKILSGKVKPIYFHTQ

[19] = test system: GABAA, Flunitrazepam, Central; assay: as above; set-up: species or system Rat
[20] = target: Histamine H2 (Homo sapiens, UniProt P25021); assay: as above
Histamine H2, sequence (P25021 whole entry): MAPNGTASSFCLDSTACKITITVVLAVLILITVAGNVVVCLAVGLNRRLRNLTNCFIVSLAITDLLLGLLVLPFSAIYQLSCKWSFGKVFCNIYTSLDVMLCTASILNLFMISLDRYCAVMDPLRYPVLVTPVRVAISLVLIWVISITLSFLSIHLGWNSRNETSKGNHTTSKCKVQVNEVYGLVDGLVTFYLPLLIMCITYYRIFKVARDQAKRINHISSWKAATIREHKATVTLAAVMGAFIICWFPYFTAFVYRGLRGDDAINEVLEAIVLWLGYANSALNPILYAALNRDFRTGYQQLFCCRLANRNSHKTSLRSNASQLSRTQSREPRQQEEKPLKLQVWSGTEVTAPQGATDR

[21] = target: Dopamine D1 (Homo sapiens, UniProt P21728); assay: as above
[22] = target: Glutamate, NMDA, Glycine (Rattus norvegicus, UniProt P35439); assay: as above
[23] = target: Transporter, GABA (Rattus norvegicus, UniProt P23978); assay: as above
[24] = target: Bradykinin B1 (Homo sapiens, UniProt P46663); assay: as above
[25] = target: KCNQ1 (Homo sapiens, UniProt P51787); assay: Cardiac ion channel MPC selectivity panel; assay type: cell-based
[26] = Liver microsome intrinsic clearance (human); assay type: in vitro ADME; settings: pH 7.4; human liver microsomes; read-out: LMS CLINT human
Protocol: After a 5 min preincubation, the reaction was initiated by the addition of NADPH (1 mM). At selected time intervals between 0 ~ 60 min (e.g. 0, 3, 7, 15, 25, 45 and/or 60 min), aliquots were taken and subsequently placed into a 96-well plate containing cold acetonitrile with an internal standard (50 ng/mL carbamazepine). Plates were then centrifuged at 3000 rcf (4 °C) for 10 min, and the supernatant was transferred to a separate 96-well plate and diluted 1:1 with water for LC/MS/MS analysis. The in vitro half-life (T 1/2, min, Eq. 1), intrinsic clearance (CLint, mL/min/kg, Eq. 2), and subsequent predicted hepatic clearance (CLhep, mL/min/kg, Eq. 3) were determined employing the following equations: […]
where k represents the slope from linear regression analysis of the natural log percent remaining of a test compound as a function of incubation time […]
(2) CLint = in vitroT1/2 x mg microsomes x gram liver x kg body wt ascale-up factors: of 20 (human) or 45 (rat) or 87.5 (mouse) […]
where Qh (hepatic blood flow, mL/min/kg) is 21 (human) or 70 (rat) or 90 (mouse).
LC/MS/MS Bioanalysis of Samples from Plasma Protein Binding and Intrinsic Clearance […]
Samples were analyzed on a Thermo Electron TSQ Quantum Ultra triple quad mass spectrometer (San Jose, CA) via electrospray ionization (ESI) with two Themo Electron Accella pumps (San Jose, CA), and a Leap Technologies CTC PAL autosampler (Carrboro, NC). Analytes were separated by gradient elution on a dual column system with two Thermo Hypersil Gold (2.1 x 30 mm, 1.9 µm) columns (San Jose, CA) thermostated at 40 °C. HPLC mobile phase A was 0.1% formic acid in water and mobile phase B was 0.1% formic acid in acetonitrile. The gradient started […]
for 0.2 min; returned to 10% B in 0.1 min. The total run time was 1.3 min and the HPLC flow rate was 0.8 mL/min. While pump 1 ran the gradient method, pump 2 equilibrated the alternate column isocratically at 10% B. Compound optimization, data collection, and processing were performed using Thermo Electron's QuickQuan software (v2.3) and Xcalibur (v2.0.7 SP1). […]

[27] = target: HNC4 (Homo sapiens, UniProt Q9Y3Q4); assay: Cardiac ion channel MPC selectivity panel; assay type: cell-based
[28] = Aqueous solubility; assay type: physicochemical
[29] = Rat IV:PBL PK cassette study / in vivo rat clearance; settings: male, Sprague-Dawley, 0.2 mg/kg
[30] = test system: male CD-1 mice; assay: MK-801 challenged novel object recognition (NOR) task; assay type: in vivo, mouse; settings: IP, 3.5 h prior to MK-801 (0.2 mg/kg IP)
Protocol: A plastic chamber (W 345×L 400×H 180 mm) was used for the novel object recognition test. The light intensity in the test room was maintained at approximately 20 lux. The novel object recognition test was conducted over two days. On the first day, mice were placed in the chamber without any objects and allowed to explore freely for 10 minutes to acclimate to the experimental environment. […] Thirty minutes after the MK-801 challenge, the acquisition trial

Dopamine D2S, sequence (P14416 1-414 isoform P14416-2): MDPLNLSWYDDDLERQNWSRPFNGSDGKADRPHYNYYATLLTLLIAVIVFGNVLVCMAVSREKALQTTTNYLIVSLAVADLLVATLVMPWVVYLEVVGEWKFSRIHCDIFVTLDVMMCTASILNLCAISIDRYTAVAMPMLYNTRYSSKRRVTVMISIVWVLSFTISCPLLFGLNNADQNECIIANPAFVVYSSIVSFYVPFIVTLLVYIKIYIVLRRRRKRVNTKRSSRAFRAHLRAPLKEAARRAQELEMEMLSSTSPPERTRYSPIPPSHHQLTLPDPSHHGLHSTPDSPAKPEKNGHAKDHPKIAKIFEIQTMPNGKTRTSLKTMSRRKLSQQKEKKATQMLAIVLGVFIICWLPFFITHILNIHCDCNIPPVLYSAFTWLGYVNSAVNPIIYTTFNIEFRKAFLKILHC

## O=C(NCc1ccc(OC(F)(F)F)cc1F)c1ccc2ncnn2c1 [ONO-2920632]
[1]
  inhibition at 10 µM: -1%
[2]
  % Inhibition at 10 µM: -7%
[3]
  inhibition at 10 µM: 40%
[4]
  inhibition at 10 µM: -10%
[5]
  inhibition at 10 µM: 4%
[6]
  inhibition at 10 µM: 39%
[7]
  inhibition at 10 µM: -3%
[8]
  inhibition at 10 µM: 29%
[9]
  % Inhibition at 10 µM: 5%
[10]
  inhibition at 10 µM: 76%
[11]
  inhibition at 10 µM: 7%
[12]
  inhibition at 10 µM: -2%
[13]
  % Inhibition at 10 µM: 1%
[14]
  inhibition at 10 µM: -6%
[15]
  inhibition at 10 µM: 23%
[16]
  inhibition at 10 µM: 36%
[17]
  % Inhibition at 10 µM: -15%
[18]
  inhibition at 10 µM: 7%
[19]
  % Inhibition at 10 µM: -9%
[20]
  inhibition at 10 µM: -12%
[21]
  inhibition at 10 µM: 8%
[22]
  inhibition at 10 µM: -6%
[23]
  inhibition at 10 µM: 19%
[24]
  inhibition at 10 µM: 27%

## Cc1cc(C#Cc2ccc(F)cc2)cnc1NC(=O)c1cc(NC(=O)OC(C)(C)C)ccc1Cl [Compound 14c]
[25]
  % at 10 μM, KCNQ1: < 50%
[26]
  CLint scaled at 1 µM: 7.5 mL/min/kg
[27]
  % at 10 μM, HNC4: < 50%
[28]
  solubility: < 5 µM
[29]; iv, in vivo rat plasma clearance, read-out: rat CLp
  clearance at 24 h: 21.2 mL/min/kg
[29]; plasma, rat IV:PBL PK cassette
  half-life at 24 h: 6.78 h
[29]; plasma, rat IV:PBL PK cassette, read-out: volume of distribution
  Vd at 24 h: 6.7 L/kg
[30]
  minimum effective dose (MED): 10 mg/kg
